The text below walks through data of patent US7361349B2, “Peptide, immunogenic composition and vaccine or medical preparation, a method to immunize animals against the hormone LHRH, and analogs of the LHRH tandem repeat peptide and their use as vaccine” (Pepscan Systems B.V., priority 1996, dated 2008).

The test system of one assay is ^125I-GnRH. The assay is described as follows: GnRH antibodies: binding of pig antisera to 125I-GnRH. It is filed as in vivo. The settings on record: for GnRH binding (average): Table 3, GnRH antibody binding percentage of 125I-GnRH, average per treatment. As to the method:
Antibodies to GnRH were determined as described by Meloen et al. (Vaccine 12, 741-746 (1994)). Serial dilutions of the pig antisera were allowed to bind to ^125I-GnRH. Titers are expressed as percentage binding of ^125I-GnRH at a given serum dilution.
(§1) Serum samples of the 10 wpv bleeding (3 weeks post booster immunization) were diluted 1/10000 in PBS with 0.4% BSA (dilution buffer). Fifty μl serum dilution was put in microwell plates and 25 μl peptide solution (0, 0.25, 2.5 or 25 pmol peptide in dilution buffer per well) was added. This mixture was allowed to incubate for 24 hours at 4° C. The next day, 25 μl iodinated GnRH (approximately 13000 cpm) was added and after overnight storage (4° C.) unbound peptide was separated from bound peptide with charcoal. After centrifugation, supernatant was separated, counted and the percentage of iodinated GnRH bound to the antibodies was calculated.

Assay [1] relates to peptides used for immunization. The assay can be described thus: Peptide antibodies ELISA of antisera. It is filed as in vivo, pig. The settings on record: for anti peptide titer at 10 wpv: Table 3, mean titer against the peptide used for immunization. As to the method:
Antibodies to the peptides used for immunization were determined with an ELISA. Peptides were coated in the wells of a microtitreplate using glutardialdehyde (GDA). GDA was coated to the surface of the wells by incubation with 0.2% GDA in 0.1 M phosphate buffer (pH 5) for 4 hours at room temperature. Plates were rinsed 3 times for 10 minutes with 0.1 M phosphate buffer (pH 8). One microgram peptide in […] phosphate buffer (0.1 M, pH 8) was coated per well by incubating for 3 hours at 37° C. Plates were stored at −20° C. until used. Thawed plates were rinsed 3 times for 10 minutes with milli Q water containing 8.2 g NaCl, 1.15 g Na2HPO4.2H2O, 0.20 g NaH2PO4.2H2O and 5 ml of a 10% Tween 80 solution in water per liter water.
Serial serum dilutions of the antipeptide sera were allowed to react with the coated peptides for 1 hour at 25° C. After rinsing 3 times for 10 minutes, goat-anti-pig IgG coupled to horseradish peroxidase (Dako, Glastrup, Denmark) was introduced as second antibody for 1 hour and ABTS (Boehringer, Mannheim, Germany) (([…] (2 g/100 ml) in 10 ml substrate buffer to which […] H2O2 (3% solution)) was used as substrate. Absorption was measured at 405 nm.
(In general: In an ELISA, binding on a coated surface is turned into a signal by an enzyme label.)

A further assay deals with testosterone. The assay can be described thus: Testosterone levels in serum (Coat-a-Count kit). It is filed as in vivo, pig. The settings on record: for testosterone (pmol/ml) at 13 wpv median (range): Table 3, serum, n.d. = not detectable; for testosterone level (in words): after immunization. Here is the method: Blood samples were taken via puncture of the vena jugularis on the same days testis sizes were measured, and also 4 weeks after the initial immunization. Blood samples were kept overnight at 4° C. and the next day serum was obtained by centrifugation (1500 g, 15 min). Serum samples were stored at −20° C. until assayed.
Testosterone levels in serum were determined using a Coat-a-Count kit purchased from DPC laboratories, Los Angeles, Calif.

The subject of another assay is Male piglets. The assay is described as follows: Immunocastration of pigs: testis size and testis weight after immunization. It is filed as in vivo, pig. The settings on record: for testis weight (g) (median (range)) / number responders/total number: Table 2; for testis weight (g) (median (range)): after slaughter at 13 wpv; for number responders/total number: effectiveness according to testis weight; for testis weight (median range): Table 3; for animals that did not respond to the immunization: number of animals per group of 7. Here is the method:
Male piglets, approximately 10 weeks of age, were involved in this experiment. The crossbred piglets were housed in half-slatted pens and were given ad libitum access to feed and water.
The piglets were randomly assigned to the treatments, 6 or 7 piglets per treatment. All animals were injected with 2 ml emulsion containing the dimerized tandem GnRH conjugates (i.e., […] peptide) or an emulsion without antigen. Injections were administered intramuscularly in the neck at the start of the experiment (day 0) and 7 weeks later (7 wpv). Thirteen weeks after initial immunization (13 wpv) all animals were slaughtered.
Animals were weighed at day 0 and 7 and 13 wpv. Testis sizes were determined by measuring testis length with Vernier calipers at day 0, and 7, 10 and 13 weeks thereafter. Testis sizes were recorded as average of both testicles.
After slaughter testes were removed, dissected free of epididymes and weighed. Testes weights were recorded as average of both testicles.

A further assay concerns GnRH-II. The assay can be described thus: GnRH antibody binding competitive radioimmunoassay, competition by GnRH-II. The arrangement: species or system pig. The settings on record: for sera with reduced binding to iodinated GnRH after competition by GnRH-II / binding of antibodies to GnRH-II: 10 wpv sera; for sera with reduced binding to iodinated GnRH after competition by GnRH-II / animals whose 10 wpv sera did not bind to GnRH-II: 1/10000 dilution; for sera with reduced binding to iodinated GnRH after competition by GnRH-II: share of sera per treatment; for binding of antibodies to GnRH-II: substantially all animals of the group; for animals whose 10 wpv sera did not bind to GnRH-II: 25 pmol peptide per well. Here is the method:
To determine whether antibodies raised by the GnRH vaccines according to the present invention discriminated between GnRH-I and GnRH-II, a GnRH antibody binding assay was performed in order to determine whether antibodies rose against GnRH-I-tandem dimer peptide or its alanine replacement analogs bind to GnRH-II or lack binding to GnRH-II. Serum dilutions were preincubated with either GnRH-I, GnRH-II, a control peptide, or no peptide. Next, iodinated GnRH-I was added to compete with the preincubated peptides for binding to the antibodies.
A GnRH antibody binding competitive radioimmunoassay was performed in order to determine whether antibodies raised against G6k-GnRH-tandem (SEQ ID NO: 9) dimer peptide or its alanine replacement analogs bind to GnRH-II or lack binding to GnRH-II. Serum dilutions were preincubated with either GnRH-I, GnRH-II, a control peptide or no peptide. Next, iodinated GnRH-I was added to compete with the preincubated peptides for binding to the antibodies.
This procedure was performed for serum collected before and after booster immunization, as specificity of the antibodies may increase after booster immunization due to antibody maturation.
as §1
Antibodies collected after the first immunization (7 wpv) were tested in a 1/2000 serum dilution and only one peptide dilution was tested (25 pmol/well).

[2] abbreviates: 7 wpv (before booster), 1/2000 dilution, 25 pmol/well.

“Also recorded” adds a separate entry of the source. Non-standard residues stand in square brackets, D forms with d. pGlu = O=C1CC[C@@H](C(=O)O)N1

“G10A-G6k-GnRH-tandem ([pGlu]HWSY[dK]LRPAQHWSY[dK]LRPAC-NH2; also: dimerized through Cys 21)”: in the assay on ^125I-GnRH, the “GnRH binding (average)” value is 17.6%. The “anti peptide titer at 10 wpv” value in assay [1] is on record as 3.19. Also, in the assay on testosterone, the “testosterone (pmol/ml) at 13 wpv median (range)” value (“testosterone (pmol/ml)” below) is recorded as “n.d. (n.d.)” and the “testosterone level (in words)” value was “undetectable testosterone levels; also recorded: low testosterone level”. Also, in the assay with Male piglets, the “testes weight (in words)” value is “low testes weight”, the “testis weight (g) (median (range))” value is listed as 14 (11-39) g, the number responders/total number was 7/7 and the “testis weight (median range)” value is 14 (11-39). The “sera with reduced binding to iodinated GnRH after competition by GnRH-II” value (“sera with reduced binding” below) in the assay with GnRH-II was “all sera”.

As for “L7A-G6k-GnRH-tandem ([pGlu]HWSY[dK]ARPGQHWSY[dK]ARPGC-NH2; also: dimer via Cys21)”, the “GnRH binding (average)” value in the assay with ^125I-GnRH came to 17.6%. The “anti peptide titer at 10 wpv” value in assay [1] was 3.52. Moreover, in the assay with Male piglets, the “testis weight (g) (median (range))” value was 20 (12-195) g, the number responders/total number is on record as 6/7, the “testis weight (median range)” value was 20 (12-195) and the “animals that did not respond to the immunization” value (shortened to “animals that did not respond”) is 1. The “sera with reduced binding” value in the assay on GnRH-II is “half of the sera”.

For “P9A-G6k-GnRH-tandem-dimer conjugate ([pGlu]HWSY[dK]LRAGQHWSY[dK]LRAGC-NH2; also: dimerized through Cys 21, ovalbumin conjugate)”, the “GnRH binding (average)” value in the assay with ^125I-GnRH is on record as 15.8%. Also, in assay [1], the “antibody titers against the peptides used for immunization (in words)” value is reported as “lower than peptide antibody titers of other treatments” and the “anti peptide titer at 10 wpv” value stood at 2.62. For the same substance, in the assay on Male piglets, the “testis weight (g) (median (range))” value is recorded as 23 (8-300) g, the number responders/total number is listed as 6/7, the “testis weight (median range)” value is listed as 23 (8-300) and the “animals that did not respond” value was 1. Besides, in the assay with GnRH-II, the “sera with reduced binding” value was “most of the sera”.

With “R8A-G6k-GnRH-tandem ([pGlu]HWSY[dK]LAPGQHWSY[dK]LAPGC-NH2; also: dimer via Cys21)”, the “GnRH binding (average)” value in the assay with ^125I-GnRH worked out at 17.7%. For the same substance, the “anti peptide titer at 10 wpv” value in assay [1] was determined as 3.34. Also, in the assay with testosterone, the “testosterone (pmol/ml)” value was “n.d. (n.d.)” and the “testosterone level (in words)” value was “undetectable testosterone levels; also recorded: low testosterone level”. Besides, in the assay with Male piglets, the “testes weight (in words)” value was “low testes weight”, the “testis weight (g) (median (range))” value is reported as 15 (10-19) g, the number responders/total number is on record as 7/7 and the “testis weight (median range)” value is listed as 15 (10-19). The “sera with reduced binding” value in the assay on GnRH-II is recorded as “all sera”.

As for “S4A-G6k-GnRH-tandem ([pGlu]HWAY[dK]LRPGQHWAY[dK]LRPGC-NH2; also: dimer via Cys21)”, the “GnRH binding (average)” value in the assay with ^125I-GnRH is on record as 16.9%. In addition, the “anti peptide titer at 10 wpv” value in assay [1] is 3.19. Besides, in the assay on testosterone, the “testosterone (pmol/ml)” value is “n.d. (n.d.)” and the “testosterone level (in words)” value is reported as “undetectable testosterone levels; also recorded: low testosterone level”. In the assay with Male piglets, the “testes weight (in words)” value is listed as “effective in terms of low testes weights; also recorded: low testes weight”, the “testis weight (g) (median (range))” value was 36 (10-69) g, the number responders/total number is given as 7/7 and the “testis weight (median range)” value was 36 (10-69). Also, in the assay on GnRH-II (setting [2]), the “animals whose prebooster sera showed binding to GnRH-II” value was “all animals”. In the assay on GnRH-II, the “binding of antibodies to GnRH-II” value is listed as “completely lacked binding to GnRH-II” and the “animals whose 10 wpv sera did not bind to GnRH-II” value is on record as 6 out of 7.

In the case of “Y5A-G6k-GnRH-tandem ([pGlu]HWSA[dK]LRPGQHWSA[dK]LRPGC-NH2; also: dimer via Cys21)”, in the assay on ^125I-GnRH, the “GnRH binding (average)” value came to 11.3%. For the same substance, in assay [1], the “anti peptide titer at 10 wpv” value worked out at 2.92. Moreover, in the assay with Male piglets, the “testis weight (g) (median (range))” value is 44 (15-235) g, the number responders/total number is listed as 5/7, the “testis weight (median range)” value is on record as 44 (15-235) and the “animals that did not respond” value was 2. For the same substance, in the assay with GnRH-II, the “sera with reduced binding” value is listed as “half of the sera”.

In the case of “pE1A-G6k-GnRH-tandem-dimer OVA conjugate (Ac-AHWSY[dK]LRPGAHWSY[dK]LRPGC-NH2; also: dimerized through Cys 21, ovalbumin conjugate)”, the “prebooster sera with no binding to iodinated GnRH” value with ^125I-GnRH (7 wpv (before booster), 1/2000 dilution) was “one”. In the assay with ^125I-GnRH, the “GnRH binding (average)” value turned out to be 15.7%. Also, in assay [1], the “anti peptide titer at 10 wpv” value was 3.24. Moreover, in the assay with Male piglets, the “testes weight (in words)” value was “effective in terms of low testes weights”, the “testis weight (g) (median (range))” value is 36 (16-65) g, the number responders/total number is recorded as 7/7 and the “testis weight (median range)” value is reported as 36 (16-65). Also, in the assay with GnRH-II (setting [2]), the “animals whose prebooster sera showed binding to GnRH-II” value is 4 out of 7 and the “prebooster sera that did not recognize GnRH-II” value is given as “Two”. In the assay on GnRH-II, the “binding of antibodies to GnRH-II” value is given as “completely lacked binding to GnRH-II” and the “animals whose 10 wpv sera did not bind to GnRH-II” value is recorded as 6 out of 7.
